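Each compound was tested at five concentrations against cells in 96-well plates for 48 hours. GI50 = concentration required for 50% inhibition of growth.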 Activity calls are given as the source filed them. Cut-off read from the data, not from the text of the source: active = GI50 up to about 1.1 µM and inactive = higher.
Experiments:
Test in all cases: NCI anticancer screen, dose series, 48 h
[1] = system: K562
[2] = system: UACC-257
[3] = system: ACHN
[4] = system: A549
[5] = system: RXF 393
[6] = system: SN12C
[7] = system: DLD-1
[8] = system: SF-268
[9] = system: MOLT-4
[10] = system: SNB-19
[11] = system: U-251
[12] = system: 786-0
[13] = system: CCRF-CEM
[14] = system: RPMI-8226
[15] = system: Malme-3M
[16] = system: OVCAR-3
[17] = system: PC-3
[18] = system: DU-145
[19] = system: MDA-N
[20] = system: BT-549

SMILES | GI50 [1] | GI50 [2] | GI50 [3] | GI50 [4] | GI50 [5] | GI50 [6] | GI50 [7] | GI50 [8] | GI50 [9] | GI50 [10] | GI50 [11] | GI50 [12] | GI50 [13] | GI50 [14] | GI50 [15] | GI50 [16] | GI50 [17] | GI50 [18] | GI50 [19] | GI50 [20]
CC(C)=CC(=O)c1c(C(=O)O)nc2ccccc2[n+]1[O-] | > 100 µM (inactive) | > 100 µM (inactive) | > 100 µM (inactive) | > 100 µM (inactive) | > 100 µM (inactive) | > 100 µM (inactive) | > 100 µM (inactive) | > 100 µM (inactive) | > 100 µM (inactive) | > 100 µM (inactive) | > 100 µM (inactive) | > 100 µM (inactive) | > 100 µM (inactive) | > 100 µM (inactive) | – | – | – | – | – | –
CCOC(=O)c1cc(/C=C/C(C)=C/C(=O)OC)oc1-c1ccccc1 | 33.8 µM (inactive) | 61.8 µM (inactive) | 71.8 µM (inactive) | 49.8 µM (inactive) | – | 73.8 µM (inactive) | 66.7 µM (inactive) | 40.8 µM (inactive) | 38.6 µM (inactive) | 38.5 µM (inactive) | 50 µM (inactive) | > 100 µM (inactive) | 48.9 µM (inactive) | 31.6 µM (inactive) | > 100 µM (inactive) | 73.5 µM (inactive) | – | – | – | –
Cc1nn(-c2ccccc2)c2c1C(c1cc3ccccc3nc1Cl)NC(=O)N2 (stereo not drawn) | 2.94 µM (inactive) | 27.7 µM (inactive) | 17.7 µM (inactive) | 56.2 µM (inactive) | 18.5 µM (inactive) | 24.4 µM (inactive) | – | 27.4 µM (inactive) | 2.64 µM (inactive) | 20.7 µM (inactive) | 17.1 µM (inactive) | 16.7 µM (inactive) | 25.8 µM (inactive) | 23.9 µM (inactive) | 20.8 µM (inactive) | 32.7 µM (inactive) | 19.8 µM (inactive) | 29.4 µM (inactive) | 18.5 µM (inactive) | 16.6 µM (inactive)
CCCn1c2ccccc2c2ccc3c(c21)C(=O)C=CC3=O | 0.561 µM (active) | 1.78 µM (inactive) | 1.83 µM (inactive) | > 10 µM (inactive) | 2.1 µM (inactive) | 3.78 µM (inactive) | – | > 6.12 µM (inactive) | 0.904 µM (active) | > 10 µM (inactive) | > 7.59 µM (inactive) | 1.84 µM (inactive) | 0.204 µM (active) | 2.12 µM (inactive) | 1.83 µM (inactive) | 2.01 µM (inactive) | 3.54 µM (inactive) | 9.79 µM (inactive) | 2.65 µM (inactive) | 2.21 µM (inactive)
O=c1c2ccccc2nc2sc(/N=C/C=C/c3ccccc3)nn12 | > 100 µM (inactive) | > 100 µM (inactive) | > 100 µM (inactive) | > 100 µM (inactive) | > 100 µM (inactive) | > 100 µM (inactive) | – | > 100 µM (inactive) | 44.9 µM (inactive) | > 100 µM (inactive) | > 100 µM (inactive) | > 100 µM (inactive) | 55.5 µM (inactive) | > 100 µM (inactive) | > 100 µM (inactive) | > 100 µM (inactive) | > 100 µM (inactive) | > 100 µM (inactive) | > 100 µM (inactive) | > 100 µM (inactive)
CN(C)C(=Nc1nc(N(C)C)s[s+]1)N(C)C | > 100 µM (inactive) | > 100 µM (inactive) | > 100 µM (inactive) | > 100 µM (inactive) | > 100 µM (inactive) | > 100 µM (inactive) | > 100 µM (inactive) | > 100 µM (inactive) | > 100 µM (inactive) | > 100 µM (inactive) | > 100 µM (inactive) | > 100 µM (inactive) | > 100 µM (inactive) | > 100 µM (inactive) | – | – | – | – | – | –
Nc1nccc(Nc2ccc(S(N)(=O)=O)cc2)n1 | > 100 µM (inactive) | > 100 µM (inactive) | > 100 µM (inactive) | > 100 µM (inactive) | > 100 µM (inactive) | > 100 µM (inactive) | – | > 100 µM (inactive) | > 100 µM (inactive) | > 100 µM (inactive) | > 100 µM (inactive) | > 100 µM (inactive) | > 100 µM (inactive) | > 100 µM (inactive) | > 100 µM (inactive) | > 100 µM (inactive) | > 100 µM (inactive) | > 100 µM (inactive) | > 100 µM (inactive) | > 100 µM (inactive)
Cc1ccc2[nH]c3c(C)c4c(c(C)c3c2c1)CN(C)C=C4 | 1.42 µM (inactive) | 2.53 µM (inactive) | 6.55 µM (inactive) | 0.37 µM (active) | 1.53 µM (inactive) | 0.186 µM (active) | 1.44 µM (inactive) | 0.353 µM (active) | 1.91 µM (inactive) | 0.52 µM (active) | 0.271 µM (active) | 0.325 µM (active) | – | 5.35 µM (inactive) | – | 2.75 µM (inactive) | – | – | – | –

From ChEMBL document CHEMBL1201862, “PubChem BioAssay data set” (2004)
